Source: PMC12677699, “Utilizing Proteolytic‐Resistant Nano‐Short Peptide Based on Naphthyl Tail‐Anchored to Combat Bacterial Infections” (Advanced Science, 2025)
Converted amounts (≈) assume the structure as drawn. Non-standard residues stand in square brackets, D forms with d. Residues, ends and D or L forms follow the SMILES beside them. ξ: configuration not given here. 2Nal = N[C@@H](Cc1ccc2ccccc2c1)C(=O)O; Ahp(2) = CCCCC[C@H](N)C(=O)O; ξAhp(2) = CCCCCC(N)C(=O)O

Key:
S. typhimurium 7731 = format: cell-based, Salmonella typhimurium
Protocol: (§1) The MIC values of the nano‐short peptides were determined according to standard protocols.^[ [63] ^] Bacterial strains were revived from cryopreservation and cultured in Mueller–Hinton broth (MHB) to logarithmic growth phase, then diluted to a final density of 0.5–1 × 10⁶ CFU mL^−1. Serial dilutions of the nano‐short peptides were prepared in 0.2% bovine serum albumin (BSA) using a 96‐well plate format. Equal volumes of peptide solutions and bacterial suspensions were combined and incubated at 37 °C for 20–22 h. Bacterial growth was assessed by measuring absorbance at 492 nm, with MHB alone (negative control) and untreated bacterial suspension (positive control) included for reference.

S. typhimurium 14028 = format: cell-based, Salmonella typhimurium
Protocol: as §1

MRSA 43300 = format: cell-based, Methicillin-Resistant Staphylococcus aureus
Protocol: as §1

P. aeruginosa PAO1 = format: cell-based, Pseudomonas aeruginosa
Protocol: as §1

P. aeruginosa 27853 = format: cell-based, Pseudomonas aeruginosa
Protocol: as §1

E. faecalis 29212 = format: cell-based, Enterococcus faecalis
Protocol: as §1

[1] = Critical aggregation concentration, 1,8-ANS fluorescence; format: physicochemical; settings: 1,8-ANS 1 × 10^−6 M, peptide 2-256 × 10^−6 M in deionized water, 1 h, ex 360 nm, em 420–670 nm, linear fitting of fluorescence intensities
Protocol: The self‐assembly behavior of nano‐short peptides was characterized by determining the CAC using 1,8‐ANS as a hydrophobic fluorescent probe.^[ [32] ^] Serial peptide dilutions (2‐256 × 10^−6 M in 50 µL deionized water) were prepared in 96‐well plates. 1,8‐ANS powder was solubilized in dimethylformamide (DMF) and added to the 96‐well plates (final concentration of 1 × 10^−6 M), and deionized water solution containing 1,8‐ANS was used as a blank control. After incubation for 1 h, the fluorescence emission spectra were continuously monitored with a microplate reader (Tecan Infinite200 Pro, λ excitation = 360 nm, λ emission = 420–670 nm). CAC values were determined by linear fitting of representative fluorescence intensities.

S. aureus 25923 = format: cell-based, Staphylococcus aureus
Protocol: as §1

S. aureus 29213 = format: cell-based, Staphylococcus aureus
Protocol: as §1

S. epidermidis 12228 = format: cell-based, Staphylococcus epidermidis
Protocol: as §1

E. coli 078 = format: cell-based, Escherichia coli
Protocol: as §1

E. coli 25922 = format: cell-based, Escherichia coli
Protocol: as §1

E. coli UB1005 = format: cell-based, Escherichia coli
Protocol: as §1

S. pullorum C7913 = format: cell-based
Protocol: as §1

E. coli ATCC 25922 [2] = assay: Drug resistance assay, 30 serial passages; format: cell-based, Escherichia coli; settings: E. coli ATCC 25922, 30 successive passages at sub-MIC concentrations
Protocol: (§2) The potential resistance development of nano‐short peptides was evaluated through 30 serial passages of E. coli ATCC 25922 and S. aureus ATCC 29213 in sub‐MIC conditions,^[ [38] ^] using gentamicin as control.

P. aeruginosa 25349 = assay: MIC against clinical strain; format: cell-based; settings: Pseudomonas aeruginosa, 25349, read-out: MIC, P. aeruginosa 25349
Protocol: as §1

A. baumannii AB1902 = assay: MIC against clinical strain; format: cell-based; settings: Acinetobacter baumannii, AB1902, read-out: MIC, A. baumannii AB1902
Protocol: as §1

S. aureus 11011 = assay: MIC against clinical strain; format: cell-based; settings: Staphylococcus aureus, 11011, read-out: MIC, S. aureus 11011
Protocol: as §1

A. baumannii AB1901 = assay: MIC against clinical strain; format: cell-based; settings: Acinetobacter baumannii, AB1901, read-out: MIC, A. baumannii AB1901
Protocol: as §1

S. aureus ATCC 29213 = assay: Drug resistance assay, 30 serial passages; format: cell-based, Staphylococcus aureus; settings: S. aureus ATCC 29213, 30 successive passages at sub-MIC concentrations; gentamicin by day 17
Protocol: as §2

E. coli ATCC 25922 [3] = assay: Serum tolerance assay (MIC after incubation with serum); format: cell-based, Escherichia coli; settings: 4 h of incubation with various serum concentrations
Protocol: The serum stability of nano‐short peptides was evaluated by incubating peptide solutions with fetal bovine serum (FBS), which was at concentrations of 25%, 50%, and 100% (diluted in 0.2% BSA solution). Following 4 h of incubation, the antimicrobial activity was determined by measuring the MIC against the test strains.

MIC, S. typhimurium 7731 (S. typhimurium 7731) [µM]	MIC, S. typhimurium 14028 (S. typhimurium 14028) [µM]	MIC, MRSA 43300 (MRSA 43300) [µM]	MIC, P. aeruginosa PAO1 (P. aeruginosa PAO1) [µM]	MIC, P. aeruginosa 27853 (P. aeruginosa 27853) [µM]	MIC, E. faecalis 29212 (E. faecalis 29212) [µM]	critical aggregation concentration (CAC) [1] [µM]	MIC, S. aureus 25923 (S. aureus 25923) [µM]	MIC, S. aureus 29213 (S. aureus 29213) [µM]	MIC, S. epidermidis 12228 (S. epidermidis 12228) [µM]	MIC, E. coli 078 (E. coli 078) [µM]	MIC, E. coli 25922 (E. coli 25922) [µM]	MIC, E. coli UB1005 (E. coli UB1005) [µM]	MIC, S. pullorum C7913 (S. pullorum C7913) [µM]	SMILES	also measured
256 (≈ 452 µg/mL)	256 (≈ 452 µg/mL)	256 (≈ 452 µg/mL)	256 (≈ 452 µg/mL)	256 (≈ 452 µg/mL)	256 (≈ 452 µg/mL)	6.65	256 (≈ 452 µg/mL)	256 (≈ 452 µg/mL)	256 (≈ 452 µg/mL)	256 (≈ 452 µg/mL)	256 (≈ 452 µg/mL)	256 (≈ 452 µg/mL)	256 (≈ 452 µg/mL)	N=C(N)NCCC[C@H](NC(=O)[C@H](Cc1ccc2ccccc2c1)NC(=O)[C@H](Cc1ccc2ccccc2c1)NC(=O)[C@H](Cc1ccc2ccccc2c1)NC(=O)[C@H](Cc1ccc2ccccc2c1)NC(=O)[C@H](Cc1ccc2ccccc2c1)NC(=O)[C@@H](N)Cc1ccc2ccccc2c1)C(=O)N[C@H](CCCNC(=N)N)C(=O)N[C@@H](CCCNC(=N)N)C(=O)N1CCC[C@H]1C(=O)O [Peptide N6] (H-[2Nal][2Nal][2Nal][2Nal][2Nal][2Nal]R[dR]RP-OH)	
256 (≈ 402 µg/mL)	256 (≈ 402 µg/mL)	256 (≈ 402 µg/mL)	256 (≈ 402 µg/mL)	256 (≈ 402 µg/mL)	256 (≈ 402 µg/mL)	11.66	256 (≈ 402 µg/mL)	256 (≈ 402 µg/mL)	256 (≈ 402 µg/mL)	256 (≈ 402 µg/mL)	256 (≈ 402 µg/mL)	256 (≈ 402 µg/mL)	256 (≈ 402 µg/mL)	N=C(N)NCCC[C@H](NC(=O)[C@H](Cc1ccc2ccccc2c1)NC(=O)[C@H](Cc1ccc2ccccc2c1)NC(=O)[C@H](Cc1ccc2ccccc2c1)NC(=O)[C@H](Cc1ccc2ccccc2c1)NC(=O)[C@@H](N)Cc1ccc2ccccc2c1)C(=O)N[C@H](CCCNC(=N)N)C(=O)N[C@@H](CCCNC(=N)N)C(=O)N1CCC[C@H]1C(=O)O [Peptide N5] (H-[2Nal][2Nal][2Nal][2Nal][2Nal]R[dR]RP-OH)	
256 (≈ 345 µg/mL)	256 (≈ 345 µg/mL)	256 (≈ 345 µg/mL)	256 (≈ 345 µg/mL)	256 (≈ 345 µg/mL)	256 (≈ 345 µg/mL)	3.31	256 (≈ 345 µg/mL)	256 (≈ 345 µg/mL)	256 (≈ 345 µg/mL)	256 (≈ 345 µg/mL)	256 (≈ 345 µg/mL)	256 (≈ 345 µg/mL)	256 (≈ 345 µg/mL)	CCCCC[C@H](NC(=O)[C@H](CCCCC)NC(=O)[C@H](CCCCC)NC(=O)[C@@H](N)CCCCC)C(=O)N[C@@H](CCCCC)C(=O)N[C@@H](CCCCC)C(=O)N[C@H](CCCNC(=N)N)C(=O)N[C@@H](CCCNC(=N)N)C(=O)N[C@@H](CCCNC(=N)N)C(=O)N1CCC[C@H]1C(=O)O [Peptide B6] (H-[Ahp(2)][Ahp(2)][Ahp(2)][Ahp(2)][Ahp(2)][Ahp(2)][dR]RRP-OH; N-terminus and C-terminus assumed)	
256 (≈ 312 µg/mL)	256 (≈ 312 µg/mL)	32 (≈ 39 µg/mL)	256 (≈ 312 µg/mL)	256 (≈ 312 µg/mL)	256 (≈ 312 µg/mL)	3.34	256 (≈ 312 µg/mL)	256 (≈ 312 µg/mL)	256 (≈ 312 µg/mL)	256 (≈ 312 µg/mL)	256 (≈ 312 µg/mL)	256 (≈ 312 µg/mL)	128 (≈ 156 µg/mL)	CCCCCC(N)C(=O)NC(CCCCC)C(=O)NC(CCCCC)C(=O)NC(CCCCC)C(=O)NC(CCCCC)C(=O)N[C@H](CCCNC(=N)N)C(=O)N[C@@H](CCCNC(=N)N)C(=O)N[C@@H](CCCNC(=N)N)C(=O)N1CCC[C@H]1C(=O)O (stereo partly drawn) [Peptide B5] (H-[ξAhp(2)][ξAhp(2)][ξAhp(2)][ξAhp(2)][ξAhp(2)][dR]RRP-OH; N-terminus assumed)	
														CNC(C)C1CCC(N)C(OC2C(N)CC(N)C(OC3OCC(C)(O)C(NC)C3O)C2O)O1 (stereo not drawn) [Gentamicin]	increase in MIC values after serial passage (E. coli ATCC 25922 [2]): 128 fold; MIC (P. aeruginosa 25349): 128 µM (≈ 61.1 µg/mL); MIC (A. baumannii AB1902): 128 µM (≈ 61.1 µg/mL); MIC (S. aureus 11011): 128 µM (≈ 61.1 µg/mL); MIC (A. baumannii AB1901): 2 µM (≈ 0.955 µg/mL); increase in MIC values after serial passage (S. aureus ATCC 29213): 128 fold
														CC[C@H]1OC(=O)[C@H](C)[C@@H](O[C@H]2C[C@@](C)(OC)[C@@H](O)[C@H](C)O2)[C@H](C)[C@@H](O[C@@H]2O[C@H](C)C[C@H](N(C)C)[C@H]2O)[C@](C)(O)C[C@@H](C)C(=O)[C@H](C)[C@@H](O)[C@]1(C)O [Erythromycin]	MIC (P. aeruginosa 25349): 128 µM (≈ 93.9 µg/mL); MIC (A. baumannii AB1902): 128 µM (≈ 93.9 µg/mL); MIC (S. aureus 11011): 128 µM (≈ 93.9 µg/mL); MIC (A. baumannii AB1901): 64 µM (≈ 47 µg/mL)
32 (≈ 37.6 µg/mL)	32 (≈ 37.6 µg/mL)	16 (≈ 18.8 µg/mL)	16 (≈ 18.8 µg/mL)	8 (≈ 9.4 µg/mL)	16 (≈ 18.8 µg/mL)	62.79	16 (≈ 18.8 µg/mL)	16 (≈ 18.8 µg/mL)	16 (≈ 18.8 µg/mL)	8 (≈ 9.4 µg/mL)	16 (≈ 18.8 µg/mL)	8 (≈ 9.4 µg/mL)	16 (≈ 18.8 µg/mL)	N=C(N)NCCC[C@H](NC(=O)[C@H](Cc1ccc2ccccc2c1)NC(=O)[C@H](Cc1ccc2ccccc2c1)NC(=O)[C@@H](N)Cc1ccc2ccccc2c1)C(=O)N[C@H](CCCNC(=N)N)C(=O)N[C@@H](CCCNC(=N)N)C(=O)N1CCC[C@H]1C(=O)O [Peptide N3] (H-[2Nal][2Nal][2Nal]R[dR]RP-OH)	antimicrobial capacity after serum incubation (E. coli ATCC 25922 [3]): retained their original antimicrobial capacity
